According to the supplement of paper PMC10307832:

How the values were obtained:
Assay in all cases: relative viability (nuclei count vs DMSO), 5 days (fraction); higher = more cells survive
[1] = compound: Cc1ccc(-n2nc(C(C)(C)C)cc2NC(=O)Nc2ccc(OCCN3CCOCC3)c3ccccc23)cc1 [Doramapimod] + CS(=O)(=O)CCNCc1ccc(-c2ccc3ncnc(Nc4ccc(OCc5cccc(F)c5)c(Cl)c4)c3c2)o1 [Lapatinib] (partner 2 µM)
Outline: (§1)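 Each reported value is a median over duplicate plates. It expresses relative viability: treated-well nuclei count divided by vehicle-well nuclei count. Lung cancer cell lines in 1536-well plates were dosed by pin tool a day after seeding, alone with one drug or with a fixed anchor-drug dose plus five library-drug doses (not always all listed) in √10 steps, and nuclei were counted after 5 days.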

[2] = compound: Cn1c(Nc2ccc(C(F)(F)F)cc2)nc2cc(Oc3ccnc(-c4ncc(C(F)(F)F)[nH]4)c3)ccc21 [RAF265] + CC1(C)CCC(c2ccc(Cl)cc2)=C(CN2CCN(c3ccc(C(=O)NS(=O)(=O)c4ccc(N[C@H](CCN5CCOCC5)CSc5ccccc5)c(S(=O)(=O)C(F)(F)F)c4)cc3)CC2)C1 [Navitoclax] (partner 0.5 µM)
Outline: as §1

[3] = compound: C1=CC=C2C(=C1)C=CC(=C2SSC3=C(C=CC4=CC=CC=C43)O)O [IPA-3] + CS(=O)(=O)N1CCN(Cc2cc3nc(-c4cccc5[nH]ncc45)nc(N4CCOCC4)c3s2)CC1 [Pictilisib] (partner 1 µM)
Outline: as §1

[4] = compound: Cn1c(Nc2ccc(C(F)(F)F)cc2)nc2cc(Oc3ccnc(-c4ncc(C(F)(F)F)[nH]4)c3)ccc21 [RAF265] + C[C@]1(O)C[C@@H](c2nc(-c3ccc4ccc(-c5ccccc5)nc4c3)c3c(N)nccn32)C1 [Linsitinib] (partner 1 µM)
Outline: as §1

In the case of HOP-62, the relative viability ([1]; first compound 0.02 µM) was 0.918, the relative viability ([1]; first compound 0.06325 µM) was 1.12 and the relative viability ([1]; first compound 0.2 µM) was 0.991. It also gave a relative viability ([1]; first compound 0.6325 µM) of 0.95, a relative viability ([1]; first compound 2 µM) of 0.927 and a relative viability ([2]; first compound 0.01 µM) of 0.942. For the same cell line, the relative viability ([2]; first compound 0.03162 µM) was 0.963, the relative viability ([2]; first compound 0.1 µM) was 0.921 and the relative viability ([2]; first compound 0.3162 µM) was 0.995. The relative viability ([2]; first compound 1 µM) was 0.951, the relative viability ([3]; first compound 0.2 µM) was 1.04 and the relative viability ([3]; first compound 0.6325 µM) was 0.651. For the same cell line, the relative viability ([3]; first compound 2 µM) was 0.589, the relative viability ([3]; first compound 6.325 µM) was 0.668 and the relative viability ([3]; first compound 20 µM) was 0.63. For the same cell line, the relative viability ([4]; first compound 0.01 µM) was 0.89, the relative viability ([4]; first compound 0.1 µM) was 1.07 and the relative viability ([4]; first compound 0.3162 µM) was 0.976. It also gave a relative viability ([4]; first compound 1 µM) of 0.604.

In the case of NCI-H2087, the relative viability ([1]; first compound 0.02 µM) was 1.06, the relative viability ([1]; first compound 0.06325 µM) was 1.11 and the relative viability ([1]; first compound 0.2 µM) was 1.02. The relative viability ([1]; first compound 0.6325 µM) was 0.869, the relative viability ([1]; first compound 2 µM) was 0.961 and the relative viability ([2]; first compound 0.01 µM) was 0.995. The relative viability ([2]; first compound 0.03162 µM) was 0.823, the relative viability ([2]; first compound 0.1 µM) was 0.692 and the relative viability ([2]; first compound 0.3162 µM) was 0.683. The relative viability ([2]; first compound 1 µM) was 0.568, the relative viability ([3]; first compound 0.2 µM) was 0.891 and the relative viability ([3]; first compound 0.6325 µM) was 0.784. It also gave a relative viability ([3]; first compound 2 µM) of 0.894, a relative viability ([3]; first compound 6.325 µM) of 0.936 and a relative viability ([3]; first compound 20 µM) of 1.01. For the same cell line, the relative viability ([4]; first compound 0.01 µM) was 0.827, the relative viability ([4]; first compound 0.03162 µM) was 0.844 and the relative viability ([4]; first compound 0.1 µM) was 0.9. For the same cell line, the relative viability ([4]; first compound 0.3162 µM) was 0.699 and the relative viability ([4]; first compound 1 µM) was 0.587.

NCI-H1793 gave a relative viability ([1]; first compound 0.02 µM) of 0.514, a relative viability ([1]; first compound 0.06325 µM) of 0.89 and a relative viability ([1]; first compound 0.2 µM) of 0.515. It also gave a relative viability ([1]; first compound 0.6325 µM) of 0.678, a relative viability ([1]; first compound 2 µM) of 0.82 and a relative viability ([2]; first compound 0.01 µM) of 0.351. The relative viability ([2]; first compound 0.03162 µM) was 0.379, the relative viability ([2]; first compound 0.1 µM) was 0.316 and the relative viability ([2]; first compound 0.3162 µM) was 0.336. It also gave a relative viability ([2]; first compound 1 µM) of 0.21, a relative viability ([3]; first compound 0.2 µM) of 0.318 and a relative viability ([3]; first compound 0.6325 µM) of 0.352. It also gave a relative viability ([3]; first compound 2 µM) of 0.314, a relative viability ([3]; first compound 6.325 µM) of 0.367 and a relative viability ([3]; first compound 20 µM) of 0.418. The relative viability ([4]; first compound 0.01 µM) was 0.794, the relative viability ([4]; first compound 0.03162 µM) was 0.767 and the relative viability ([4]; first compound 0.1 µM) was 0.779. It also gave a relative viability ([4]; first compound 0.3162 µM) of 0.46 and a relative viability ([4]; first compound 1 µM) of 0.376.

PC-3 [JPC-3] gave a relative viability ([1]; first compound 0.02 µM) of 0.475, a relative viability ([1]; first compound 0.06325 µM) of 0.433 and a relative viability ([1]; first compound 0.2 µM) of 0.432. The relative viability ([1]; first compound 0.6325 µM) was 0.485, the relative viability ([1]; first compound 2 µM) was 0.348 and the relative viability ([2]; first compound 0.01 µM) was 0.735. It also gave a relative viability ([2]; first compound 0.03162 µM) of 0.754, a relative viability ([2]; first compound 0.1 µM) of 0.893 and a relative viability ([2]; first compound 0.3162 µM) of 0.304. It also gave a relative viability ([2]; first compound 1 µM) of 0.556, a relative viability ([3]; first compound 0.2 µM) of 0.863 and a relative viability ([3]; first compound 0.6325 µM) of 0.774. For the same cell line, the relative viability ([3]; first compound 2 µM) was 0.696, the relative viability ([3]; first compound 6.325 µM) was 0.668 and the relative viability ([3]; first compound 20 µM) was 0.772. It also gave a relative viability ([4]; first compound 0.01 µM) of 1.03, a relative viability ([4]; first compound 0.03162 µM) of 0.911 and a relative viability ([4]; first compound 0.1 µM) of 1.04. For the same cell line, the relative viability ([4]; first compound 0.3162 µM) was 0.416 and the relative viability ([4]; first compound 1 µM) was 0.722.

Cell Line H3255 has a relative viability ([1]; first compound 0.02 µM) of 0.234, a relative viability ([1]; first compound 0.06325 µM) of 0.233 and a relative viability ([1]; first compound 0.2 µM) of 0.244. The relative viability ([1]; first compound 0.6325 µM) was 0.241, the relative viability ([1]; first compound 2 µM) was 0.267 and the relative viability ([2]; first compound 0.01 µM) was 0.563. It also gave a relative viability ([2]; first compound 0.03162 µM) of 0.47, a relative viability ([2]; first compound 0.1 µM) of 0.695 and a relative viability ([2]; first compound 0.3162 µM) of 0.0727. The relative viability ([2]; first compound 1 µM) was 0.23, the relative viability ([3]; first compound 0.2 µM) was 0.454 and the relative viability ([3]; first compound 0.6325 µM) was 0.465. For the same cell line, the relative viability ([3]; first compound 2 µM) was 0.44, the relative viability ([3]; first compound 6.325 µM) was 0.573 and the relative viability ([3]; first compound 20 µM) was 0.558. For the same cell line, the relative viability ([4]; first compound 0.01 µM) was 1, the relative viability ([4]; first compound 0.03162 µM) was 0.942 and the relative viability ([4]; first compound 0.1 µM) was 0.929. The relative viability ([4]; first compound 0.3162 µM) was 0.137 and the relative viability ([4]; first compound 1 µM) was 0.716.

With EMC-BAC-2 the relative viability ([1]; first compound 0.02 µM) was 0.918, the relative viability ([1]; first compound 0.06325 µM) was 0.935 and the relative viability ([1]; first compound 0.2 µM) was 0.871. For the same cell line, the relative viability ([1]; first compound 0.6325 µM) was 1.01, the relative viability ([1]; first compound 2 µM) was 0.715 and the relative viability ([2]; first compound 0.01 µM) was 1.11. For the same cell line, the relative viability ([2]; first compound 0.03162 µM) was 1.06, the relative viability ([2]; first compound 0.1 µM) was 1.05 and the relative viability ([2]; first compound 0.3162 µM) was 0.941. For the same cell line, the relative viability ([2]; first compound 1 µM) was 0.612, the relative viability ([3]; first compound 0.2 µM) was 0.552 and the relative viability ([3]; first compound 0.6325 µM) was 0.53. For the same cell line, the relative viability ([3]; first compound 2 µM) was 0.531, the relative viability ([3]; first compound 6.325 µM) was 0.529 and the relative viability ([3]; first compound 20 µM) was 0.636. For the same cell line, the relative viability ([4]; first compound 0.01 µM) was 0.761, the relative viability ([4]; first compound 0.03162 µM) was 0.793 and the relative viability ([4]; first compound 0.1 µM) was 0.734. The relative viability ([4]; first compound 0.3162 µM) was 0.596 and the relative viability ([4]; first compound 1 µM) was 0.348.

CAL-12T gave a relative viability ([1]; first compound 0.02 µM) of 0.674, a relative viability ([1]; first compound 0.06325 µM) of 0.557 and a relative viability ([1]; first compound 0.2 µM) of 0.676. For the same cell line, the relative viability ([1]; first compound 0.6325 µM) was 0.611, the relative viability ([1]; first compound 2 µM) was 0.623 and the relative viability ([2]; first compound 0.01 µM) was 1.28. The relative viability ([2]; first compound 0.03162 µM) was 1.01, the relative viability ([2]; first compound 0.1 µM) was 0.861 and the relative viability ([2]; first compound 0.3162 µM) was 0.757. The relative viability ([2]; first compound 1 µM) was 0.523, the relative viability ([3]; first compound 0.2 µM) was 0.442 and the relative viability ([3]; first compound 0.6325 µM) was 0.494. The relative viability ([3]; first compound 2 µM) was 0.397, the relative viability ([3]; first compound 6.325 µM) was 0.441 and the relative viability ([3]; first compound 20 µM) was 0.348. The relative viability ([4]; first compound 0.01 µM) was 0.969, the relative viability ([4]; first compound 0.03162 µM) was 0.659 and the relative viability ([4]; first compound 0.1 µM) was 0.671. For the same cell line, the relative viability ([4]; first compound 0.3162 µM) was 0.43 and the relative viability ([4]; first compound 1 µM) was 0.4.

SK-MES-1 showed a relative viability ([1]; first compound 0.02 µM) of 0.455, a relative viability ([1]; first compound 0.06325 µM) of 0.453 and a relative viability ([1]; first compound 0.2 µM) of 0.389. The relative viability ([1]; first compound 0.6325 µM) was 0.451, the relative viability ([1]; first compound 2 µM) was 0.376 and the relative viability ([2]; first compound 0.01 µM) was 1.11. It also gave a relative viability ([2]; first compound 0.03162 µM) of 1.01, a relative viability ([2]; first compound 0.1 µM) of 1.01 and a relative viability ([2]; first compound 0.3162 µM) of 0.361. It also gave a relative viability ([2]; first compound 1 µM) of 0.209, a relative viability ([3]; first compound 0.2 µM) of 0.415 and a relative viability ([3]; first compound 0.6325 µM) of 0.357. The relative viability ([3]; first compound 2 µM) was 0.321, the relative viability ([3]; first compound 6.325 µM) was 0.34 and the relative viability ([3]; first compound 20 µM) was 0.403. The relative viability ([4]; first compound 0.01 µM) was 1.14, the relative viability ([4]; first compound 0.03162 µM) was 0.926 and the relative viability ([4]; first compound 0.1 µM) was 0.947. The relative viability ([4]; first compound 0.3162 µM) was 0.562 and the relative viability ([4]; first compound 1 µM) was 0.249.
